Source: ChEMBL document CHEMBL4052811, “Design, synthesis and antiproliferative activity of novel substituted 2-amino-7,8-dihydropteridin-6(5H)-one derivatives” (Bioorg Med Chem Lett, 2017)

Key:
[1] = test system: T47D; assay: Cytotoxicity against human T47D cells after 48 hrs by MTT assay; type: functional, cell-based
[2] = test system: MDA-MB-468; assay: Cytotoxicity against human MDA-MB-468 cells after 48 hrs by MTT assay; type: functional, cell-based; details: MDA-MB-468, 48 h
[3] = test system: MDA-MB-231; assay: Cytotoxicity against human MDA-MB-231 cells after 48 hrs by MTT assay; type: functional, cell-based; details: MDA-MB-231, 48 h
[4] = test system: BT-549; assay: Cytotoxicity against human BT549 cells after 48 hrs by MTT assay; type: functional, cell-based; details: BT-549, 48 h
[5] = test system: T47D; assay: Cell cycle arrest in human T47D cells assessed as accumulation at G0/G1 phase at 12 uM after 12 to 48 hrs by FACS analysis (reference value: 59.67%); type: functional
[6] = test system: T47D; assay: Cell cycle arrest in human T47D cells assessed as accumulation at G2/M phase at 6 uM after 12 to 48 hrs by FACS analysis (reference value: 18.51%); type: functional
[7] = test system: T47D; assay: Cell cycle arrest in human T47D cells assessed as accumulation at G0/G1 phase at 6 uM after 12 to 48 hrs by FACS analysis (reference value: 59.67%); type: functional
[8] = test system: MDA-MB-468; assay: Potency index, ratio of fluorouracil IC50 to compound IC50 for human MDA-MB-468 cells; type: functional
[9] = test system: T47D; assay: Cell cycle arrest in human T47D cells assessed as accumulation at G1 phase after 12 to 48 hrs by FACS analysis; type: functional, cell-based
[10] = test system: T47D; assay: Cell cycle arrest in human T47D cells assessed as accumulation at G2/M phase at 12 uM after 12 to 48 hrs by FACS analysis (reference value: 18.51%); type: functional
[11] = test system: BT-549; assay: Potency index, ratio of fluorouracil IC50 to compound IC50 for human BT549 cells; type: functional
[12] = test system: T47D; assay: Cell cycle arrest in human T47D cells assessed as accumulation at S phase at 6 uM after 12 to 48 hrs by FACS analysis (reference value: 21.82%); type: functional
[13] = test system: T47D; assay: Potency index, ratio of fluorouracil IC50 to compound IC50 for human T47D cells; type: functional
[14] = test system: T47D; assay: Cell cycle arrest in human T47D cells assessed as accumulation at S phase at 12 uM after 12 to 48 hrs by FACS analysis (reference value: 21.82%); type: functional
[15] = test system: T47D; assay: Cell cycle arrest in human T47D cells assessed as accumulation at G0/G1 phase at 3 uM after 12 to 48 hrs by FACS analysis (reference value: 59.67%); type: functional
[16] = test system: T47D; assay: Cell cycle arrest in human T47D cells assessed as accumulation at S phase at 3 uM after 12 to 48 hrs by FACS analysis (reference value: 21.82%); type: functional
[17] = test system: T47D; assay: Cell cycle arrest in human T47D cells assessed as accumulation at G2/M phase at 3 uM after 12 to 48 hrs by FACS analysis (reference value: 18.51%); type: functional

Row | Structure (SMILES) | IC50 [1] | IC50 [2] | IC50 [3] | IC50 [4] | further results
1 | COc1cc(Nc2ncc3c(n2)N(C)CC(=O)N3)cc(OC)c1OC | 56.2 µM | 66.1 µM | 46.2 µM | 45.2 µM | –
2 | O=C1CN(Cc2ccccc2)c2nc(Nc3ccccc3)ncc2N1 | 15.2 µM | 20.6 µM | 37 µM | 11.9 µM | –
3 | COc1cccc(CNc2ncc3c(n2)N(Cc2ccccc2)CC(=O)N3)c1 | 15.3 µM | 23.2 µM | 47 µM | 15.6 µM | –
4 | CN1CC(=O)Nc2cnc(NCCc3ccccc3)nc21 | 23.2 µM | 56.2 µM | 34.2 µM | 41.2 µM | –
5 | CS(=O)(=O)N1CCC(Nc2ncc3c(n2)N(Cc2ccccc2)CC(=O)N3)CC1 | > 100 µM | 97.4 µM | > 100 µM | > 100 µM | –
6 | O=C1CN(Cc2ccccc2)c2nc(NCCc3ccccc3)ncc2N1 | 6.37 µM | 7.75 µM | 22.4 µM | 10.7 µM | Activity [5]: 74.68%; Activity [6]: 16.5%; Activity [7]: 72.7%; Ratio IC50 [8]: 49; Activity [9]: Dose-dependent effect; Activity [10]: 20.98%; Ratio IC50 [11]: 8; Activity [12]: 10.8%; Ratio IC50 [13]: 11; Activity [14]: 4.34%; Activity [15]: 61.25%; Activity [16]: 18.98%; Activity [17]: 19.76%
7 | CN1CC(=O)Nc2cnc(Nc3ccccc3)nc21 | > 100 µM | > 100 µM | > 100 µM | > 100 µM | –
8 | O=C1CNc2nc(Nc3ccc(Cl)cc3)ncc2N1 | 29.3 µM | 15 µM | 41.6 µM | 17.7 µM | –
9 | O=C1CN(Cc2ccccc2)c2nc(Nc3ccc(Cl)cc3)ncc2N1 | > 100 µM | > 100 µM | > 100 µM | > 100 µM | –
10 | CCOC(=O)CN(Cc1ccccc1)c1nc(NCCc2ccccc2)ncc1[N+](=O)[O-] | 6.59 µM | 6.26 µM | 24.2 µM | 13.7 µM | –
11 | CCOC(=O)CNc1ncc2c(n1)N(Cc1ccccc1)CC(=O)N2 | > 100 µM | > 100 µM | > 100 µM | > 100 µM | –
12 | COc1ccc(Nc2ncc3c(n2)NCC(=O)N3)cc1 | 89.2 µM | > 100 µM | > 100 µM | 95 µM | –
13 | O=C1CNc2nc(Nc3ccc(F)cc3)ncc2N1 | > 100 µM | > 100 µM | > 100 µM | 92.4 µM | –
14 | COc1cccc(Nc2ncc3c(n2)N(Cc2ccccc2)CC(=O)N3)c1 | 78.7 µM | 40.4 µM | 99.9 µM | 81.1 µM | –
15 | CN1CCN(Nc2ncc3c(n2)N(Cc2ccccc2)CC(=O)N3)CC1 | 79 µM | > 100 µM | 98.3 µM | 98.3 µM | –
16 | COc1cccc(Nc2ncc3c(n2)N(C)CC(=O)N3)c1 | > 100 µM | > 100 µM | > 100 µM | > 100 µM | –
17 | CN1CC(=O)Nc2cnc(Nc3ccc(Cl)cc3)nc21 | 36 µM | 31.3 µM | > 100 µM | 91 µM | –
18 | O=c1[nH]cc(F)c(=O)[nH]1 [FLUOROURACIL] | 171 µM | 95.7 µM | 53.5 µM | 98.2 µM | –
19 | COc1cc(Nc2ncc3c(n2)N(Cc2ccccc2)CC(=O)N3)cc(OC)c1OC | 8.76 µM | > 100 µM | 10.6 µM | 12.8 µM | –
20 | COc1cccc(Nc2ncc3c(n2)NCC(=O)N3)c1 | > 100 µM | > 100 µM | 93.2 µM | > 100 µM | –
21 | CN1CC(=O)Nc2cnc(NCc3ccccc3)nc21 | 89.7 µM | 94.4 µM | 92 µM | 78.8 µM | –
22 | O=C1CNc2nc(Nc3ccccc3)ncc2N1 | 85.4 µM | > 100 µM | > 100 µM | > 100 µM | –
